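96-well plates; 48 h exposure; 5 concentrations. Endpoints by linear interpolation between flanking doses. Not reached: highest tested concentration assigned. Here, GI50 denotes the concentration required for 50% inhibition of growth.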 The source made the active and inactive calls. Rule as the data show it: active = GI50 up to about 1.1 µM and inactive = higher.
Assays:
Assay in all cases: growth of human tumour cells (NCI), 48 h
[1] = tested on: 786-0
[2] = tested on: SW-620
[3] = tested on: KM12
[4] = tested on: BT-549
[5] = tested on: CAKI-1
[6] = tested on: MDA-MB-231
[7] = tested on: RXF 393
[8] = tested on: SK-MEL-2
[9] = tested on: TK-10
[10] = tested on: SF-295
[11] = tested on: SR
[12] = tested on: CCRF-CEM
[13] = tested on: NCI/ADR-RES
[14] = tested on: T47D
[15] = tested on: UACC-62
[16] = tested on: NCI-H226
[17] = tested on: HCT-116
[18] = tested on: PC-3
[19] = tested on: OVCAR-3

Row | SMILES | GI50 [1] | GI50 [2] | GI50 [3] | GI50 [4] | GI50 [5] | GI50 [6] | GI50 [7] | GI50 [8] | GI50 [9] | GI50 [10] | GI50 [11] | GI50 [12] | GI50 [13] | GI50 [14] | GI50 [15] | GI50 [16] | GI50 [17] | GI50 [18] | GI50 [19]
1 | CCOc1cc2c(c(OCC)c1O)CC[C@@H]1[C@@H]2CC[C@]2(C)[C@@H](O)CC[C@@H]12 | 2.45 µM (inactive) | 1.22 µM (inactive) | 6.03 µM (inactive) | 0.418 µM (active) | 0.746 µM (active) | 2.62 µM (inactive) | 2.21 µM (inactive) | 14 µM (inactive) | 25.3 µM (inactive) | 0.693 µM (active) | 0.331 µM (active) | 1.7 µM (inactive) | 3.23 µM (inactive) | 2.33 µM (inactive) | 0.482 µM (active) | 15.9 µM (inactive) | – | – | –
2 | CC1=CC(C)(C)NN1C1=NS(=O)(=O)c2ccccc2N1C | > 100 µM (inactive) | > 100 µM (inactive) | > 100 µM (inactive) | > 100 µM (inactive) | > 100 µM (inactive) | > 100 µM (inactive) | > 100 µM (inactive) | > 100 µM (inactive) | > 100 µM (inactive) | > 100 µM (inactive) | – | 98.9 µM (inactive) | > 100 µM (inactive) | > 100 µM (inactive) | > 100 µM (inactive) | > 100 µM (inactive) | > 100 µM (inactive) | > 100 µM (inactive) | > 100 µM (inactive)
3 | O=c1/c(=C/c2ccc(-c3ccc(Cl)cc3Cl)o2)sc2n1[C@@H](c1ccc3c(c1)OCO3)C=C(c1cc(F)c(Cl)cc1Cl)N=2 | 42.9 µM (inactive) | 35.8 µM (inactive) | 57.5 µM (inactive) | 37.8 µM (inactive) | > 100 µM (inactive) | 22.6 µM (inactive) | 39.4 µM (inactive) | 26 µM (inactive) | 7.78 µM (inactive) | 40.7 µM (inactive) | – | 38.7 µM (inactive) | 45.9 µM (inactive) | 21.1 µM (inactive) | 16 µM (inactive) | 20.7 µM (inactive) | 35.4 µM (inactive) | 69 µM (inactive) | –
4 | Nc1ncnc2c1ncn2[C@@H]1C[C@H]1CO | > 100 µM (inactive) | > 100 µM (inactive) | > 100 µM (inactive) | > 10 µM (inactive) | – | > 100 µM (inactive) | – | > 100 µM (inactive) | – | > 100 µM (inactive) | > 100 µM (inactive) | > 100 µM (inactive) | > 100 µM (inactive) | > 100 µM (inactive) | – | > 100 µM (inactive) | > 100 µM (inactive) | > 100 µM (inactive) | 42 µM (inactive)
5 | CC1CCC2c3c([nH]c4ccccc34)C3C(=O)N(C4CCCCC4)C(=O)C3C2C1 (stereo unspecified) | 6.85 µM (inactive) | 67.3 µM (inactive) | – | 14.1 µM (inactive) | 14 µM (inactive) | 11.8 µM (inactive) | 13.7 µM (inactive) | 17.4 µM (inactive) | 13.4 µM (inactive) | 16.3 µM (inactive) | 29.2 µM (inactive) | 57.7 µM (inactive) | 36.5 µM (inactive) | – | 12.2 µM (inactive) | 16.5 µM (inactive) | 11.9 µM (inactive) | 38.3 µM (inactive) | 19.9 µM (inactive)
6 | COc1ccc(OC)c2sc(N3C(=O)/C(=C/Cc4ccco4)N=C3c3ccccc3)nc12 | 35.5 µM (inactive) | 32.5 µM (inactive) | 38.8 µM (inactive) | 50.2 µM (inactive) | 81.1 µM (inactive) | > 100 µM (inactive) | – | 24.1 µM (inactive) | > 100 µM (inactive) | 73.1 µM (inactive) | 19.4 µM (inactive) | 11.7 µM (inactive) | 63.1 µM (inactive) | 26 µM (inactive) | 21.8 µM (inactive) | – | 27.3 µM (inactive) | 24.5 µM (inactive) | 31.4 µM (inactive)
7 | O=C(O)c1cc2ccccc2c(/N=N/c2ccc(S(=O)(=O)Nc3ncccn3)cc2)c1O | > 100 µM (inactive) | > 100 µM (inactive) | > 100 µM (inactive) | > 100 µM (inactive) | > 100 µM (inactive) | > 100 µM (inactive) | > 100 µM (inactive) | > 100 µM (inactive) | > 100 µM (inactive) | > 100 µM (inactive) | > 100 µM (inactive) | > 100 µM (inactive) | > 100 µM (inactive) | – | > 100 µM (inactive) | > 100 µM (inactive) | > 100 µM (inactive) | > 100 µM (inactive) | > 100 µM (inactive)
8 | COc1cc(C2c3cc4c(cc3OC(C)(O)C2C)OCO4)cc(OC)c1OC (stereo unspecified) | 0.708 µM (active) | 0.349 µM (active) | 0.697 µM (active) | 5.42 µM (inactive) | 12.2 µM (inactive) | 0.433 µM (active) | 0.211 µM (active) | – | – | 0.304 µM (active) | 0.379 µM (active) | 0.406 µM (active) | 0.316 µM (active) | – | – | 1.31 µM (inactive) | 0.333 µM (active) | 0.306 µM (active) | 0.316 µM (active)
9 | CN1CCN(C(=S)N(C(=O)c2ccco2)C2CCCCC2)CC1 | > 100 µM (inactive) | > 100 µM (inactive) | > 100 µM (inactive) | > 100 µM (inactive) | – | > 100 µM (inactive) | > 100 µM (inactive) | > 100 µM (inactive) | > 100 µM (inactive) | > 100 µM (inactive) | > 100 µM (inactive) | > 100 µM (inactive) | – | > 100 µM (inactive) | > 100 µM (inactive) | > 100 µM (inactive) | – | – | > 100 µM (inactive)
10 | Cc1csc2nc(-c3cccc([N+](=O)[O-])c3)c(/C=N/N=C(N)N)n12 | 1.57 µM (inactive) | 1.71 µM (inactive) | 1.68 µM (inactive) | 1.1 µM (active) | 2.73 µM (inactive) | 1.55 µM (inactive) | 1.7 µM (inactive) | 1.77 µM (inactive) | 1.78 µM (inactive) | 1.69 µM (inactive) | – | 1.92 µM (inactive) | 6.27 µM (inactive) | 1.87 µM (inactive) | 1.46 µM (inactive) | 1.64 µM (inactive) | 1.7 µM (inactive) | 1.63 µM (inactive) | 1.62 µM (inactive)
11 | CN1c2ccccc2S(=O)(=O)n2c(COc3ccccc3)nnc21 | 64.6 µM (inactive) | > 100 µM (inactive) | > 100 µM (inactive) | 64.4 µM (inactive) | > 100 µM (inactive) | > 100 µM (inactive) | > 100 µM (inactive) | > 100 µM (inactive) | > 100 µM (inactive) | 45.7 µM (inactive) | – | > 100 µM (inactive) | > 100 µM (inactive) | > 100 µM (inactive) | > 100 µM (inactive) | > 100 µM (inactive) | > 100 µM (inactive) | > 100 µM (inactive) | > 100 µM (inactive)
12 | CCOC(=O)C1CCCc2sc(N)c(C#N)c21 (stereo unspecified) | > 100 µM (inactive) | > 100 µM (inactive) | > 100 µM (inactive) | 55.5 µM (inactive) | – | > 100 µM (inactive) | > 100 µM (inactive) | > 100 µM (inactive) | > 100 µM (inactive) | – | > 100 µM (inactive) | – | – | > 100 µM (inactive) | > 100 µM (inactive) | > 100 µM (inactive) | > 100 µM (inactive) | > 100 µM (inactive) | –
13 | c1ccc2cc3c(cc2c1)nc1ccccn13 | > 100 µM (inactive) | > 100 µM (inactive) | > 100 µM (inactive) | > 100 µM (inactive) | – | – | > 100 µM (inactive) | – | > 100 µM (inactive) | > 100 µM (inactive) | > 100 µM (inactive) | > 100 µM (inactive) | > 100 µM (inactive) | > 100 µM (inactive) | > 100 µM (inactive) | > 100 µM (inactive) | 96.2 µM (inactive) | > 100 µM (inactive) | > 100 µM (inactive)
14 | CCc1nnc(CC)n1N1C(=O)CCC1=O | > 100 µM (inactive) | > 100 µM (inactive) | > 100 µM (inactive) | > 100 µM (inactive) | – | > 100 µM (inactive) | > 100 µM (inactive) | > 100 µM (inactive) | > 100 µM (inactive) | > 100 µM (inactive) | > 100 µM (inactive) | > 100 µM (inactive) | > 100 µM (inactive) | – | > 100 µM (inactive) | – | > 100 µM (inactive) | > 100 µM (inactive) | > 100 µM (inactive)
15 | COC(=O)[C@]1(c2cc3ccccc3[nH]2)CC2CN(CC(=O)N(C)OC)C1CC2(OC)OC (stereo partly specified) | 22.2 µM (inactive) | 36.4 µM (inactive) | 31.6 µM (inactive) | 23.3 µM (inactive) | 20.7 µM (inactive) | 31.9 µM (inactive) | 33.5 µM (inactive) | 39 µM (inactive) | > 100 µM (inactive) | > 100 µM (inactive) | – | 7.23 µM (inactive) | 41.2 µM (inactive) | 22 µM (inactive) | 67.8 µM (inactive) | 34.4 µM (inactive) | 26.9 µM (inactive) | 24.2 µM (inactive) | 50.6 µM (inactive)
16 | CCCCc1ccc(Nc2nc3ncnc-3c[nH]2)cc1 | 25.6 µM (inactive) | 20.4 µM (inactive) | 19.4 µM (inactive) | 25.7 µM (inactive) | 19.4 µM (inactive) | 12.8 µM (inactive) | 18.5 µM (inactive) | 20.2 µM (inactive) | 17 µM (inactive) | 18.2 µM (inactive) | > 10 µM (inactive) | 7.94 µM (inactive) | 18.3 µM (inactive) | 19.1 µM (inactive) | 21 µM (inactive) | 15.9 µM (inactive) | 20.2 µM (inactive) | – | 14.2 µM (inactive)
